Laboratory results from article PMC10377586 (Biomolecules, 2023).

Key:
[1] = target: T1, human MAO-B (Homo sapiens, UniProt P27338); assay: Amplex Red monoamine oxidase assay, MAO-B; type: biochemical; details: human recombinant MAO-B; read-out: MAO-B IC50 ± SEM
T1 construct: purchased Sigma Aldrich M7441
T1 sequence (P27338 1-520): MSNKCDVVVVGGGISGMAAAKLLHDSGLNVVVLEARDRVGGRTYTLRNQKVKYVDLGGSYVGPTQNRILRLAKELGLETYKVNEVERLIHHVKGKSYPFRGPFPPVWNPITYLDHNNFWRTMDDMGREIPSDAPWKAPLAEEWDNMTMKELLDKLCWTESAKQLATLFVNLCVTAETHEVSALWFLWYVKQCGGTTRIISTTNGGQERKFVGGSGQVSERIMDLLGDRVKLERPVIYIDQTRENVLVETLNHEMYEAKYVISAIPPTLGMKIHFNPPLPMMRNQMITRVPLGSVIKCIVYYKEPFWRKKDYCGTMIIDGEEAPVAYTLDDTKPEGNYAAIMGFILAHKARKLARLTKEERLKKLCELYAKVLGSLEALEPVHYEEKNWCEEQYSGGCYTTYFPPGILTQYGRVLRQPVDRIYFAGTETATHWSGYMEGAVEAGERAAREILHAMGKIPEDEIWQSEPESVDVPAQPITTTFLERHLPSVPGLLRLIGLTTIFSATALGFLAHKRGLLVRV
Protocol: Inhibition activity of compounds at MAO enzyme isoforms was measured via a fluorometric method using the Amplex Red Monoamine Oxidase Assay (ThermoFisher Scientific, Waltham, MA, USA #A12214) in a 96-well plates. Human recombinant MAO-B and MAO-A enzymes (Sigma Aldrich, St. Louis, MO, USA #M7441 and #M7316) were used.

[2] = target: T2, rat A2A (rA2A) ARs (Rattus norvegicus, UniProt P30543); assay: Radioligand binding [3H]MSX-2, rat brain striatal membranes; details: read-out: rA2A [3H]MSX-2 Ki ± SEM
T2 construct: rat brain striatal membrane preparations for A2A AR assays; tissue Pel Freez; host or cells: rat brain striatum membranes
T2 sequence (P30543 whole entry): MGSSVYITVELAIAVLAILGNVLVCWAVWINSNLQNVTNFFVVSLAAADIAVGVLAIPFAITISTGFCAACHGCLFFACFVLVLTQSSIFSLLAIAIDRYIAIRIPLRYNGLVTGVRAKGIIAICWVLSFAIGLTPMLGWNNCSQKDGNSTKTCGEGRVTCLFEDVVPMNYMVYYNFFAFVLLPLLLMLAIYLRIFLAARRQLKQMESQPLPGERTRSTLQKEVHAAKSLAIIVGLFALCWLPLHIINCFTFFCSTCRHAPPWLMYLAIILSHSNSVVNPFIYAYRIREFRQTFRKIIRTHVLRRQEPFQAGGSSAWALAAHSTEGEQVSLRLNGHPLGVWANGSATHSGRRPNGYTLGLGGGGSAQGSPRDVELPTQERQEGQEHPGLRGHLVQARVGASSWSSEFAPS
Protocol: (§1) The final compounds were tested in radioligand binding assays to evaluate their affinity for all four ARs subtypes (see Table 2). Rat brain cortical membrane preparations were used as a source of rat A1 (rA1) ARs, and rat brain striatal membrane preparations served as a source of rat A2A (rA2A) ARs. For A2B- and A3AR assays, membrane preparations of Chinese hamster ovary (CHO) cells recombinantly expressing either human A2B (hA2B) or human A3 (hA3) ARs were employed.
(§2) Adenosine receptor radioligand binding assays were performed as previously described using rat brain cortical membrane preparations for A1 and rat brain striatal membrane preparations for A2A AR assays. Frozen rat brains (unstripped) were obtained from Pel Freez, Rogers, AR, USA. For assays at human AR subtypes, cell membranes of CHO cells recombinantly expressing the respective receptor were used. The following compounds were employed as radioligands: A1: [^3H]2-chloro-N^6-cyclopentyladenosine ([^3H]CCPA); A2A: [^3H]3-(3-hydroxypropyl)-7-methyl-8-(m-methoxystyryl)-1-propargylxanthine ([^3H]MSX-2); A2B: [^3H]8-(4-(4-(4-chlorophenyl)piperazine-1-sulfonyl)phenyl)-1-propylxanthine ([^3H]PSB-603); A3: [^3H]phenyl-8-ethyl-4-methyl-(8R)-4,5,7,8-tetrahydro-1H-imidazo[2,1-i]purine-5-one ([^3H]PSB-11). Initially, a single high concentration of compound was tested (1 µM). For potent compounds, full concentration–inhibition curves were determined using six to ten different concentrations of test compound spanning three orders of magnitude. At least three independent experiments were performed. Data were analyzed using GraphPad PRISM program version 4.0 or higher (Graph Pad, San Diego, CA, USA).

[3] = target: T3, human A3 (hA3) ARs (Homo sapiens, UniProt P0DMS8); assay: Radioligand binding [3H]PSB-11, CHO cell membranes; details: for Ki: CHO cell membranes, read-out: hA3 [3H]PSB-11 Ki ± SEM; for inhibition at 1 µM: read-out: hA3 [3H]PSB-11 % inhibition ± SEM at 1 µM
T3 construct: expressed in transfected cells; host or cells: CHO cells (membranes)
T3 sequence (P0DMS8 1-318): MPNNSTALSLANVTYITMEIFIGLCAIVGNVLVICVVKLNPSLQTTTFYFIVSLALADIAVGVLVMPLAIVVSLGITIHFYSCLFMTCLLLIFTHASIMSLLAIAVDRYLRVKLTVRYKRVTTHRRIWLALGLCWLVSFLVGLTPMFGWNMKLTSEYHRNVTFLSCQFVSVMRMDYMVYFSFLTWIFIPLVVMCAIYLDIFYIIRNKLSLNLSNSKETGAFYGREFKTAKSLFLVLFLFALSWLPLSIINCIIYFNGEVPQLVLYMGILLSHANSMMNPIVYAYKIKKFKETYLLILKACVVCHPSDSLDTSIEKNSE
Protocol: as §1, §2

[4] = target: T4, human PDE10A1 (Homo sapiens, UniProt Q9Y233); assay: PDElight HTS cAMP phosphodiesterase assay, PDE10A1; type: biochemical; details: for IC50: read-out: PDE 10A1 IC50 ± SEM; for inhibition at 10 µM: read-out: PDE 10A1 % Inhibition ± SEM at 10 µM
T4 construct: purchased BPS Biosciences
T4 sequence (Q9Y233 1-779 isoform Q9Y233-1): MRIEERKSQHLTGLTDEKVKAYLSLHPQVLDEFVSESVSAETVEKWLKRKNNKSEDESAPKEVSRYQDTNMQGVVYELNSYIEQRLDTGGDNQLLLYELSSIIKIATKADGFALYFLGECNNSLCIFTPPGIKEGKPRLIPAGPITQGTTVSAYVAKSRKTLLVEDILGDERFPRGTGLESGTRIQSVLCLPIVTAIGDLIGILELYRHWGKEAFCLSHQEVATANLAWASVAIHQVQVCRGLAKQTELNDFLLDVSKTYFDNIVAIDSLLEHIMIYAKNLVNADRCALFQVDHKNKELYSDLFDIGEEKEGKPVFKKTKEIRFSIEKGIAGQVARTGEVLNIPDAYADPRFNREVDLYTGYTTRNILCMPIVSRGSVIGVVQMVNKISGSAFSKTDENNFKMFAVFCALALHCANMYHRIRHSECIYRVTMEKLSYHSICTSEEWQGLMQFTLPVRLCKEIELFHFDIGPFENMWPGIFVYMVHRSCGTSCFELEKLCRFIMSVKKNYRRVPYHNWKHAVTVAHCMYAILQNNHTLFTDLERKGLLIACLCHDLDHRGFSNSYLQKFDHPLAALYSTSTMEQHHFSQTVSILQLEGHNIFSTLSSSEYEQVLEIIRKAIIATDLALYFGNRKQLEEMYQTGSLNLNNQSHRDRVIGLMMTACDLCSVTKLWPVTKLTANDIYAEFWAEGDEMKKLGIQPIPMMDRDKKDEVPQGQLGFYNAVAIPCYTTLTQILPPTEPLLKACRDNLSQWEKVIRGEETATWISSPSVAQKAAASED
Protocol: Further biological evaluation of the presented compound library was performed determining inhibitory potencies against selected human PDE isoforms, namely, PDE4 and PDE10 (for results see Table 3).
Tested and reference compounds were dissolved in dimethyl sulfoxide (DMSO) at a concentration of 10 mM and further diluted in assay buffer (10 mM Tris-HCl, 10 mM magnesium chloride and 0.05% Tween-20; pH 7.4). Inhibition of human PDE10A and 4B1 was measured using PDElight HTS cAMP phosphodiesterase assay kit (Lonza, Basel, Switzerland) according to manufacturer’s recommendations. Then, 10 ng of PDE10A and 5 ng of PDE4B1 (BPS Biosciences, San Diego, CA, USA) in appropriate buffer was incubated with reference and tested compound for 20 min. […] Then PDELight AMP Detection Reagent was added and incubated 10 min. All reactions were carried out at 37 °C in 96 white-walled, half-area-well plates (PerkinElmer). Luminescence was measured in a multifunction plate reader (POLARstar Omega, BMG Labtech, Ortenberg, Germany). The percentage of inhibition and IC50s were computed using GraphPad Prism Version 6.0 software.

[5] = DPPH antioxidant assay; type: physicochemical; details: compound at 50 µM
Description: The 2,2-diphenyl-1-picrylhydrazyl (DPPH) assay was used to determine the antioxidant properties of selected compounds using ascorbic acid, trolox, and quercetin as references. […] From a structural point of view, 21 and 22 share a common pyrimido[2,1-f]purinedione core with propyl or butyl substituents at the N1- and N3-position. Compounds 11i and 11l, containing hexyl or phenoxyethyl as N7-substituents, were the only structures in the groups of bicyclic xanthine derivatives that lacked antioxidant activity in the DPPH assay.
Antioxidant properties of considered structures were evaluated in DPPH test. The assay utilizes a stable free radical 2,2-diphenyl-1-picrylhydrazyl (DPPH). DPPH has a deep violet color in solution and strong absorption band at 520 nm. The antioxidant activity of the tested compounds was defined by their ability to induce the formation of the reduced form of DPPH. Upon reduction, DPPH color turned pale yellow, which manifested by decreased sample absorption at 520 nm and was measured in conducted experiments using EnSpire microplate reader (PerkinElmer). Antioxidant activity of xanthine derivatives and reference compounds was tested in triplicate at 50 µM concentration and normalized to the activity of reference radical scavenger—quercetin.
Figure 2 Antioxidant properties of xanthine derivatives evaluated in the DPPH test. All compounds were tested at 50 µM concentration. Results were normalized to the antioxidant activity measured for quercetin. ASC, ascorbic acid; TLX, trolox; QCT, quercetin.

Row | Compound | IC50 [1] [nM] | Ki [2] [nM] | Ki [3] [nM] | inhibition at 1 µM [3] [%] | IC50 [4] [nM] | Antioxidative Activity [% of Quercetin Response at 50 µM ± SD] [5] | melting point [°C] | inhibition at 10 µM [4] [%]
1 | Cn1c(=O)c2c(nc(NCCc3ccc(O)c(O)c3)n2C)n(C)c1=O [Compound 11a, 8-((3,4-Dihydroxyphenethyl)amino)-1,3,7-trimethyl-3,7-dihydro-1H-purine-2,6-dione] | 50.7 ± 10 | 370 ± 63 | > 1000 | -1 | 15100 ± 3100 | 79 ± 1 % of Quercetin Response | 204 to 206 | –
2 | CCCn1c(NCCc2ccc(O)c(O)c2)nc2c1c(=O)n(C)c(=O)n2C [Compound 11c, 8-((3,4-Dihydroxyphenethyl)amino)-1,3-dimethyl-7-propyl-3,7-dihydro-1H-purine-2,6-dione] | 165 ± 30 | 4720 ± 930 | > 1000 | 5 | 3450 ± 270 | 69 ± 1 % of Quercetin Response | – | –
3 | CCCCn1c(NCCc2ccc(O)c(O)c2)nc2c1c(=O)n(C)c(=O)n2C [Compound 11e, 7-Butyl-8-((3,4-dihydroxyphenethyl)amino)-1,3-dimethyl-3,7-dihydro-1H-purine-2,6-dione] | 43.8 ± 16.2 | 1700 ± 260 | > 1000 | 0 | 3770 ± 1290 | 75 ± 1 % of Quercetin Response | – | –
4 | CC(C)Cn1c(NCCc2ccc(O)c(O)c2)nc2c1c(=O)n(C)c(=O)n2C [Compound 11f, 8-((3,4-Dihydroxyphenethyl)amino)-7-isobutyl-1,3-dimethyl-3,7-dihydro-1H-purine-2,6-dione] | 205 ± 23 | 6860 ± 770 | > 1000 | -6 | – | 57 ± 1 % of Quercetin Response | – | 59
5 | CCC(C)n1c(NCCc2ccc(O)c(O)c2)nc2c1c(=O)n(C)c(=O)n2C (stereo not shown) [Compound 11g, 7-(Sec-butyl)-8-((3,4-dihydroxyphenethyl)amino)-1,3-dimethyl-3,7-dihydro-1H-purine-2,6-dione] | 197 ± 57 | 8980 ± 150 | > 1000 | -4 | 10200 ± 900 | 71 ± 1 % of Quercetin Response | – | –
6 | CCCCCn1c(NCCc2ccc(O)c(O)c2)nc2c1c(=O)n(C)c(=O)n2C [Compound 11h, 8-((3,4-Dihydroxyphenethyl)amino)-1,3-dimethyl-7-pentyl-3,7-dihydro-1H-purine-2,6-dione] | 58.3 ± 6.2 | 2220 ± 260 | > 1000 | 0 | ≥ 10000 | 79 ± 1 % of Quercetin Response | – | 51
7 | Cn1c(=O)c2c(nc(NCCc3ccc(O)c(O)c3)n2Cc2ccccc2)n(C)c1=O [Compound 11j, 7-Benzyl-8-((3,4-dihydroxyphenethyl)amino)-1,3-dimethyl-3,7-dihydro-1H-purine-2,6-dione] | 45.6 ± 12.9 | 3600 ± 290 | > 1000 | 7 | ≥ 10000 | 82 ± 1 % of Quercetin Response | – | 36
8 | Cn1c(=O)c2c(nc(NCCc3ccc(O)c(O)c3)n2CCc2ccccc2)n(C)c1=O [Compound 11k, 8-((3,4-Dihydroxyphenethyl)amino)-1,3-dimethyl-7-phenethyl-3,7-dihydro-1H-purine-2,6-dione] | 73.5 ± 7.5 | ≥ 10000 | > 1000 | -1 | 2410 ± 70 | 73 ± 3 % of Quercetin Response | – | –
9 | CCCn1c(=O)c2c(nc(NCCc3ccc(O)c(O)c3)n2CCC)n(CCC)c1=O [Compound 12, 8-((3,4-Dihydroxyphenethyl)amino)-1,3,7-tripropyl-3,7-dihydro-1H-purine-2,6-dione] | 105 ± 23 | 833 ± 81 | > 1000 | 25 | 2730 ± 30 | 86 ± 3 % of Quercetin Response | – | –
10 | CCCCn1c(=O)c2c(nc(NCCc3ccc(O)c(O)c3)n2CCC)n(CCCC)c1=O [Compound 13, 1,3-Dibutyl-8-((3,4-dihydroxyphenethyl)amino)-7-propyl-3,7-dihydro-1H-purine-2,6-dione] | 81.8 ± 19.7 | 1320 ± 250 | > 1000 | 17 | > 10000 | 61 ± 1 % of Quercetin Response | – | 26
11 | CCCn1c(=O)c2c(nc3n2CCCN3CCc2ccc(O)c(O)c2)n(CCC)c1=O [Compound 21, 9-(3,4-Dihydroxyphenethyl)-1,3-dipropyl-6,7,8,9-tetrahydropyrimido[2,1-f]purine-2,4(1H,3H)-dione] | 157 ± 39 | 274 ± 81 | > 1000 | 26 | 31000 ± 100 | 13 ± 1 % of Quercetin Response | – | –
12 | CCCCn1c(=O)c2c(nc3n2CCCN3CCc2ccc(O)c(O)c2)n(CCCC)c1=O [Compound 22, 1,3-Dibutyl-9-(3,4-dihydroxyphenethyl)-6,7,8,9-tetrahydropyrimido[2,1-f]purine-2,4(1H,3H)-dione] | 170 ± 30 | 334 ± 52 | 676 ± 143 | – | > 10000 | 26 ± 2 % of Quercetin Response | – | 25
